Reference: US20240325544A1, “CATIONIC LIPID FOR COVALENT MODIFICATION OF PEPTIDES” (PharmalN Corporation, priority 2023, published 2024)
Bridge positions count the residues as written; N and C are the ends. Square brackets hold non-standard residues; d marks the D form. Peptide text beside a SMILES is read from it. * marks the point of attachment. Palmitoyl = CCCCCCCCCCCCCCCC(=O)*; Dap = NC[C@H](N)C(=O)O; AEEA = NCCOCCOCC(=O)O

Test system: LM8 osteosarcoma cells
Assay: Orthotopic mouse model of lung metastasis using osteosarcoma LM8 cells with amputation (FIG. 11)
Assay type: in vivo, mice
Details: 0.3 mg/kg SC with amputation on Day 7; Day 34
Experimental: FIGS. 11A-11C. […] Error bars indicate standard error of the mean. […] Also illustrated in this diagram are the corresponding treatment schedules for SEQ ID NO: 31 and amputation. From tumor implantation, the SEQ ID NO: 31 treated group was dosed SC (0.3 mg/kg/0.1 μmol/kg in buffer) on Days 4-8, 11-15, 18-22, and 25-26. On Day 7 post-inoculation, all mice underwent amputation to remove the primary tumor. In place of treatment, the amputated control group also received buffer on the same days that SEQ ID NO: 31 was administered. Mice were sacrificed on Day 34, and lung tissues were harvested. FIGS. 11B and 11C) Lung tissues were soaked in 4% paraformaldehyde, paraffin-embedded, and sections were stained with hematoxylin and eosin (H&E). Lung images were observed using high-resolution microscopy (Keyence, Tokyo, Japan, #BZ-X700), and lung metastasis was evaluated by the direct count of present metastatic lung nodules. […]
Animal care and treatment: Male […] mice (7 weeks-old) were purchased from Kyudo (Saga, Japan) and maintained under a 12-hour light/12-hour dark cycle with free access to water and standard mouse diet (MF diet; Oriental Yeast Co., Ltd., Tokyo, Japan). […] Lung images were observed using the high-resolution microscopy (Keyence, Tokyo, Japan, #BZ-X700), and lung metastasis was evaluated by the direct count of present metastatic nodules (FIG. 11C). […]

SMILES: CCCCCCCCCCCCCCCC(=O)NCCOCCOCC(=O)NCCOCCOCC(=O)NCCOCCOCC(=O)N[C@@H](CN)C(=O)N[C@@H](CN)C(=O)NCC(=O)N[C@@H](CC(C)C)C(=O)N[C@@H](CO)C(=O)N[C@@H](CCCCN)C(=O)NCC(=O)N[C@H]1CSSC[C@@H](C(=O)O)NC(=O)CNC(=O)[C@H](CC(C)C)NC(=O)CNC(=O)[C@H](CO)NC(=O)[C@H](CCC(N)=O)NC(=O)[C@H](CO)NC(=O)CNC(=O)[C@H]([C@@H](C)CC)NC(=O)[C@H](CCCNC(=N)N)NC(=O)[C@H](CC(=O)O)NC(=O)[C@H](CC(C)C)NC(=O)[C@H](CCCCN)NC(=O)[C@H](CC(C)C)NC(=O)CNC(=O)[C@H](Cc2ccccc2)NC1=O [SEQ ID NO: 31] ({Palmitoyl-AEEA-AEEA-AEEA}-[Dap][Dap]GLSKGCFGLKLDRIGSQSGLGC-OH; disulfide 8-24; C-terminus assumed)
- Metastatic nodules present in the lung vs amputation alone: significant reduction
